# Experimental data as given in US8883826B2, “Alkynyl derivatives as modulators of metabotropic glutamate receptors” (Addex Pharma SA, priority 2004, dated 2014).
# Entries after “also recorded” stand apart in the source; their conditions may differ.
# Assays:
# mGluR5 = molecular target: T1, mGluR5 (Rattus norvegicus, UniProt P31424); experiment: mGluR5 binding assay ([3H]-MPEP radioligand competition); conditions: competition with 3 nM [3H]-MPEP, rat brain cortical membranes, 1 h at 4 °C; mean of at least three independent experiments in duplicate
# T1 construct: tissue Charles River Laboratories; host or cells: rat brain cortex membranes (Sprague-Dawley)
# T1 sequence (P31424 21-1203): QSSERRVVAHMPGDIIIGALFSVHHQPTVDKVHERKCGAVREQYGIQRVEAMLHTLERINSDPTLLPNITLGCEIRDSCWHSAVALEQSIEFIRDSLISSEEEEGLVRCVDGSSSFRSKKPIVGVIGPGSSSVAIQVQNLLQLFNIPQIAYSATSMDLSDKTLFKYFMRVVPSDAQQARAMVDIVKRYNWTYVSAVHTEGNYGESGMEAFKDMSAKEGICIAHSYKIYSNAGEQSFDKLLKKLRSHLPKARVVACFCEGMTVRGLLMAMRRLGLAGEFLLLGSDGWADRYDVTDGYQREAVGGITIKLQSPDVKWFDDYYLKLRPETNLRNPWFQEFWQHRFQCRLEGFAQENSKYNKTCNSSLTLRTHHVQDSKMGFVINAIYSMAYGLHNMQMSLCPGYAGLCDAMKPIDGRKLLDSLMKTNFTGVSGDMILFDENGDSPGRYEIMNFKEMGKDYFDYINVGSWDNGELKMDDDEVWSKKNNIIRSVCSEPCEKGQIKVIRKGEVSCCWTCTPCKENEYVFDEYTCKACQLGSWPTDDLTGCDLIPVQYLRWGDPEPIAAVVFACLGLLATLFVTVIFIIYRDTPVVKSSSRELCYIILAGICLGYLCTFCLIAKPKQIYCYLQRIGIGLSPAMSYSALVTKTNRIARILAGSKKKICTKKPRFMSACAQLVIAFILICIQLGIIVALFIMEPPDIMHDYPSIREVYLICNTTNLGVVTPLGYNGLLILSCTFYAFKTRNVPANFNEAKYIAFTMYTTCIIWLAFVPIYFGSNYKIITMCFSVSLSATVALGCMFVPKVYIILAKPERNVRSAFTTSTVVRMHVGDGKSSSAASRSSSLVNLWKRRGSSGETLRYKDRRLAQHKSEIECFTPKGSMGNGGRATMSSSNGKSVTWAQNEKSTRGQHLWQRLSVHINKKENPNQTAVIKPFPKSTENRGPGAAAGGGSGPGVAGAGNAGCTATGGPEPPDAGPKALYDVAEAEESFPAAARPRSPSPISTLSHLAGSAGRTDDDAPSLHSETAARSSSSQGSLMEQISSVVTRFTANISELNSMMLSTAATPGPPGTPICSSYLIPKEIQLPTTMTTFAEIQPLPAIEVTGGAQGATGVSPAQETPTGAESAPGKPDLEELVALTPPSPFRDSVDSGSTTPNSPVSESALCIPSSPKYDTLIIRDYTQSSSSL
# How it was run: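 Rat cortical membranes (50 μg) were incubated 1 h at 4 °C with 3 nM [3H]-MPEP and compound (0.003 nM-30 μM, 8 points) in HEPES buffer pH 7.4 with Mg2+, Ca2+ and NaCl. 30 μM MPEP defined non-specific binding, and bound label was counted after filtration. IC50 came from non-linear regression, as the mean of ≥3 experiments run in duplicate.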
# Male Sprague-Dawley rats = experiment: Vogel conflict drinking model of anxiety; type: in vivo, rat; conditions: n=9-10/group
# Description: Vogel Conflict Drinking Model of Anxiety in Rats
# The Vogel conflict drinking model involves the conflict between thirst and receiving mild shocks for drinking water (punished drinking). Water-deprived rats are placed in a chamber and are periodically shocked for drinking water. The shocks suppress drinking and anxiolytics reverse this shock-induced suppression of drinking. The Vogel conflict drinking model was first proposed as a screening model for anxiolytics (Vogel, J. R. et al., Psychopharmacologia (Berl.), 21:1-7 (1971)) and is widely accepted as a robust model for testing the anxiolytic-like properties of compounds (Millan, M. J. and Brocco M., European Journal of Pharmacology, 463:67-96 (2003)).
# Such compounds may be useful in the treatment of anxiety and related disorders. […]
# The effect of compounds on drinking in the Vogel conflict drinking model in rats was tested. […] The number of punished drinks was counted automatically by the computer interface. […]
# Statistical analyses were performed using GraphPad PRISM version 4.01 statistical software (GraphPad, San Diego, Calif., USA). Data were analyzed using one-way analysis of variance (ANOVA) followed by Bonferroni multiple comparisons. […]
# Male C57BL6/j mice = experiment: Marble burying model of anxiety; type: in vivo, mouse; conditions: 60 minutes prior to test, n=10/group
# Description: Marble Burying Model of Anxiety
# Marble burying behavior in mice is reduced by compounds which are efficacious anxiolytics in humans. Thus, marble burying in mice has been used as a model for the prediction of anxiolytic-like effects of compounds (Millan, M. J. et al., Neuropharmacology, 42:677-684 (2002)).
# Selective negative allosteric modulators (allosteric antagonists) of the metabotropic glutamate receptor subtype 5 (mGluR5) have been shown previously to reduce marble burying in mice (Spooren, W. P. et al., Journal of Pharmacology and Experimental Therapeutics, 295:1267-1275 (2000)). […] Such compounds may be useful in the treatment of anxiety and related disorders.
# The present studies were performed in accordance with the animal care and use policies of Addex Pharmaceuticals and the EEC directives on the protection of animals used for experimental and other scientific purposes (86/609/EEC and subsequent revisions). […]
# The effect of compounds on marble burying in mice was tested. […] After removal of the mice from the test cages, the number of marbles buried was counted. […]
# Statistical analyses were performed using GraphPad PRISM version 4.01 statistical software (GraphPad, San Diego, Calif., USA). Data were analyzed using one-way analysis of variance (ANOVA) followed by Bonferroni-corrected multiple comparisons, or t tests if only 2 groups were present. […]
compound,measurement,setting,value
"Cl.FCc1cccc(C#CCCn2nc3ccccc3n2)n1 [Example 130, 2-(4-(6-(Fluoromethyl)pyridin-2-yl)but-3-ynyl)-2H-benzo[d][1,2,3]triazole hydrochloride]",IC50,mGluR5,< 50 nM
same,punished drinking in the Vogel conflict drinking test (vs vehicle),"Male Sprague-Dawley rats; 30 mg/kg po, t(1, 17)=2.593, hydrochloride",significantly increases punished drinking; also recorded: took significantly more punished licks than vehicle injected controls
same,melting point,,172.5 to 173.5 °C
"Clc1cccn2cc(CCC#Cc3ccccn3)nc12 [Example 255, 8-Chloro-2-(4-(pyridin-2-yl)but-3-ynyl)-imidazo[1,2-a]pyridine]",IC50,mGluR5,< 50 nM
same,melting point,,106 to 107 °C
same,marble burying in mice (number of marbles buried vs vehicle),"Male C57BL6/j mice; 50 mg/kg po, t (1, 18)=3.92",significantly attenuates marble burying; also recorded: buried significantly fewer marbles than vehicle-treated mice
"FCc1cccc(C#CCCc2cn3cccc(Cl)c3n2)n1 [Example 256, 8-Chloro-2-(4-(6-(fluoromethyl)pyridin-2-yl)but-3-ynyl)-imidazo[1,2-a]pyridine]",IC50,mGluR5,< 50 nM
same,punished drinking in the Vogel conflict drinking test (vs vehicle),"Male Sprague-Dawley rats; 10 mg/kg po, t=3.585, p<0.01",significantly increases punished drinking; also recorded: accepted significantly more shocks than vehicle-treated rats
same,melting point,,73 to 74.5 °C
same,marble burying in mice (number of marbles buried vs vehicle),"Male C57BL6/j mice; 30 mg/kg po, t=3.686, p<0.01",significantly attenuates marble burying; also recorded: buried fewer marbles than vehicle-treated mice
